What all share (format): cell-based
One experiment addresses T1, human TLR8 (Homo sapiens, UniProt Q9NR97).
T1 construct: host or cells: HEK293
T1 sequence (Q9NR97 27-1041): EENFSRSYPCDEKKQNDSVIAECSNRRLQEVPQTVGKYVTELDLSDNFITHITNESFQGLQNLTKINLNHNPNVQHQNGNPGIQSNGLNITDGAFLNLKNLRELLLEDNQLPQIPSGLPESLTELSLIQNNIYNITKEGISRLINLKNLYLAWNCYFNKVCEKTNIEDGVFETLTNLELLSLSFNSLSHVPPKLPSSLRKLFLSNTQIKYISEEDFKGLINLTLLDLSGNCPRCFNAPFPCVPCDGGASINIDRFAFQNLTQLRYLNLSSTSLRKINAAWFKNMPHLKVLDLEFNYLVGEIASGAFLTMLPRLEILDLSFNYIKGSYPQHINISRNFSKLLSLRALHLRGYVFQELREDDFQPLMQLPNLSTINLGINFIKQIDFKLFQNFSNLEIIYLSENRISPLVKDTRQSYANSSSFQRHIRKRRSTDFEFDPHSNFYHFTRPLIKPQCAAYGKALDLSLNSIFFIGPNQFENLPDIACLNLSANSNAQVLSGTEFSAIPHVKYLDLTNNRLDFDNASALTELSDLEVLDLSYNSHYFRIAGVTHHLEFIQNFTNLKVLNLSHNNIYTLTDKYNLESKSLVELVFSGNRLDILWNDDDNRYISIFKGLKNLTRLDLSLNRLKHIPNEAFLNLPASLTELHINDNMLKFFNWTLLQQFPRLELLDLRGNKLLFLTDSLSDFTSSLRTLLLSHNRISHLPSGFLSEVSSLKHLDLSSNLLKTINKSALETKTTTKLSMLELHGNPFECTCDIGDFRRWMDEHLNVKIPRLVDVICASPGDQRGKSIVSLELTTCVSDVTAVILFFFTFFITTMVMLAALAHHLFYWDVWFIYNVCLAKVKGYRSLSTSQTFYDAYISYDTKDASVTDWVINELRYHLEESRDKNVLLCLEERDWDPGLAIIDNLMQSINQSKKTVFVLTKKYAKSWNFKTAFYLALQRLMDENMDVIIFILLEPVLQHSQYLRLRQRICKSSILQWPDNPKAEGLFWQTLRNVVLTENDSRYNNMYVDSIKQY
In words: HEK293 SEAP reporter assay, human TLR8 (Biological Example 1). The conditions noted are these: HEK293-humanTLR8 reporter cells, 4 hrs; read-out: hTLR8 EC50. On the procedure: In this example, the activity of the TLR7 agonists to activate human TLR7, hTLR7 (or human TLR8, hTLR8, or mouse TLR7, mTLR7) pathway was evaluated on HEK293 reporter cells transfected with human TLR7 (or mouse TLR7 or human TLR8) and an inducible SEAP (secreted embryonic alkaline phosphatase) reporter gene. The SEAP reporter gene is placed under the control of the IFN-β minimal promoter fused to five NF-κB and AP-1-binding sites. Stimulation with a TLR7 agonist activates NF-KB and AP-1 which induces the production of SEAP. Levels of SEAP was determined with HEK-Blue Detection medium.
HEK293-humanTLR7, HEK293-mouseTLR7 and HEK293-humanTLR8 reporter cell lines were purchased from Invivogen and cell lines were maintained in manufacture recommended culture medium with required supplemental antibiotics. On the day of assay, the cells were harvested with Accutase and counted by the Vi-CELL Cell Viability Analyzers. Cells were re-suspended in HEK blue detection medium and a total of 10000 cells were seeded in each well of a 384-well flat bottom plate. Serial dilutions of TLR7 agonists free drugs (1:3 serial dilution starting from 5 μM) was added into treatment wells. Assay plates were cultured at 37° C. in a CO2 incubator for […]. HEK-Blue™ Detection medium changes to a purple/blue color in the presence of secreted SEAP, which can be detected by spectrophotometry at 620-655 nm. […]
On the technique in general: In a reporter assay the amount or activity of a reporter protein is the signal.

In experiment [1] the test system is human PBMCs. In words: Compound-induced immune cell activation (CD86 expression, flow cytometry). As to conditions: monocytes, B cells, cDCs and pDCs (FIG. 1A-1D); 48 hr. An excerpt: This example evaluates the ability of Compound 1 to stimulate the activation of different immune cells populations (monocyte, B cell, and DCs) in human PBMCs (Peripheral blood mononuclear cells), cyno PBMCs and mouse splenocytes. Compound A, above, and resiquimod, below, were used as controls in this assay
Peripheral blood mononuclear cells (PBMCs) were isolated from fresh collected blood from two healthy human donors and two cynomolgus monkey donors using Leukosep tube and Nycoprep 1.077 buffer according to the manufacture's recommendation. Mouse splenocytes were isolated from C57/BL6 mouse spleens by macerating and straining over a 70 μm cell strainer. Isolated PBMCs or splenocytes were then frozen done using frozen medium. On the day of the assay, PBMCs or splenocytes were thawed and cultured in PBMC culture medium (RPMI supplemented with 10% heat-inactivated fetal bovine serum from Hyclone, 1% Penicillin/Streptomycin and 2 mmol/L-glutamax). 300k of PBMC or splenocytes in 50 μL of culture medium were seeded in 96-well cell culture plates. 50 μL of the test articles (formulated at 2× of starting concentration, 1:4 serial dilution) were then added into the well. The cell mixtures were co-cultured in the presence of test articles and 10 pg/mL LPS-RS for 48 hr and collected by Accutase. […] Cells were washed, fixed with 2% PFA overnight, and read on the Attune NxT cytometer (Thermo Fisher). […]
On the technique in general: In flow cytometry, cells or beads pass a laser one at a time.

Experiment [2] relates to human PBMCs. Kind of experiment: Compound-induced cytokine release (ELISA). The conditions noted are these: IL-6, MCP-1, IL1Ra (FIG. 4A-4C); 24 hrs. On the procedure: (§1) This example evaluates the ability of Compound 1 to induce cytokine release in human PBMCs, cyno PBMCs and mouse splenocytes. Compound A and resiquimod, above, were used as controls in the assays.
(§2) Human and cyno PBMCs, mouse splenocytes were isolated as described in previous example. On the day of the assay, 300k of PBMC or splenocytes in 50 μL of culture medium were seeded in 96-well cell culture plates. 50 μL of the test articles (formulated at 2× of starting concentration) were then added into the well. The cell mixtures were co-cultured in the presence of test articles and 10 μg/mL LPS-RS for 24 hrs (human PBMCs) or 48 hr (cyno PBMCs and mouse splenocytes). Released cytokines in cell culture medium were measured by ELISA.
Background: ELISA stands for enzyme-linked immunosorbent assay.

Another experiment deals with mouse splenocytes. In words: Compound-induced cytokine release (ELISA). The conditions noted are these: IL-6, MCP-1, TNFα and IP-10 (FIG. 6A-6D); 48 hr. On the procedure: as §1, §2

Usually EC50 stands for the midpoint of the concentration-response curve.

With `CCCCn1nc2c(N)nc3ccccc3c2c1Cc1ccc(CN)cc1` [Compound 1, 1-(4-(aminomethyl)benzyl)-2-butyl-2H-pyrazolo[3,4-c]quinolin-4-amine], the EC50 on human TLR8 was 0.82 µM. Further, in the experiment on human PBMCs [1], the “activation of immune cells in human PBMCs” value was “very potent in activating”. In the experiment on human PBMCs [2], the “cytokine release from human PBMCs” value was “stimulated strong”. In addition, in the experiment on mouse splenocytes, the “cytokine release from mouse splenocytes” value is reported as “stimulated strong”.

Source of the values: patent publication US20220259202A1, “1-(4-(AMINOMETHYL)BENZYL)-2-BUTYL-2H-PYRAZOLO[3,4-C]QUINOLIN-4-AMINE DERIVATIVES AND RELATED COMPOUNDS AS TOLL-LIKE RECEPTOR (TLR) 7/8 AGONISTS, AS WELL AS ANTIBODY DRUG CONJUGATES THEREOF FOR USE IN CANCER THERAPY AND DIAGNOSIS” (SUTRO BIOPHARMA, INC., priority 2019, published 2022).
